Where two headings read alike, the source gives them in different places.
Columns and labels:
[1] = tested on: subjects with previously untreated multiple myeloma; assay: Example 1 randomized open-label study, VMP vs MP: treatment-emergent peripheral neuropathy; conditions: human, in vivo, 54 weeks
Description: A randomized, open-label, multicenter study was conducted, consisting of 3 Phases: a Pre-randomization (Screening) Phase, an Open-label Treatment Phase, and a Post-treatment Phase. Approximately 680 subjects with previously untreated multiple myeloma were randomly assigned to one of two treatment groups and were stratified according to baseline β2-microglobulin, baseline albumin levels and region (North America, Europe, other). Subjects received either VELCADE™/Melphalan/Prednisone (VMP) (Treatment Group A) or Melphalan/Prednisone (MP) (Treatment Group B). Subjects in Treatment Group A received VELCADE™ 1.3 mg/m^2 (twice weekly [Weeks 1, 2, 4, and 5] for four 6-week cycles [8 doses per cycle] followed by once weekly [Weeks 1, 2, 4, and 5] for five 6-week cycles [4 doses per cycle]) in combination with melphalan 9 mg/m^2 and prednisone 60 mg/m^2 (once daily on Days 1 to 4 of each 6-week cycle). Subjects in Treatment Group B received 9 cycles of melphalan 9 mg/m^2 and prednisone 60 mg/m^2 once daily on Days 1 to 4 of each 6-week cycle. For both groups, treatment continued for a maximum of 9 cycles (54 weeks) and subjects were discontinued if disease progression or an unacceptable treatment-related toxicity occurred, or if a subject withdrew consent.
Included in the analysis are the 368 subjects who met all of the following criteria: consented to DNA analysis; had usable genotype data for SNPs listed in Appendix 1; had Adverse Event related clinical data before treatment and after at least one cycle of VELCADE™ treatment (including those having neurological events and those completing treatment with no neurological event). These 368 subjects included: Treatment Group A (154 Caucasian, 2 black, 10 Asian); Treatment Group B (168 Caucasian, 4 black, 12 Asian), and 18 were not treated.
The primary adverse event endpoints are the treatment-emergent peripheral neuropathies caused by VELCADE™, including peripheral neuropathy NEC, peripheral sensory neuropathy, and neuralgia. For each specific peripheral neuropathy endpoint, the null hypothesis was that none of the successfully genotyped SNPs is associated with this specific treatment-emergent peripheral neuropathy. Each successfully genotyped SNP is tested to see whether there is a difference in the distribution of the genotypes of this SNP between patients with and without this specific VELCADE™ treatment-emergent peripheral neuropathy. The test result is subsequently adjusted by total number of successfully genotyped SNPs to correct multiplicity. […]

patients = conditions: cited from earlier work
[2] = tested on: patients with multiple myeloma; conditions: cited from earlier work
[3] = tested on: patients with newly diagnosed multiple myeloma; conditions: human, in vivo, 4 cycles
Description: A randomized, open-label, multicenter study was conducted that compared vincristine/adriamycin/dexamethasone (VAD) and VELCADE™/Dexamethasone as induction treatment prior to autologous hematopoietic stem cell transplantation (AHSCT) in patients up to (and including) the age of 65 with newly diagnosed multiple myeloma. Approximately 480 patients were included in this study. Subjects were randomized at diagnosis into one of 4 induction treatment arms: • A1 VAD (4 cycles) • A2 VAD (4 cycles) followed by Dexamethasone/cyclophosphomide/etoposide/cis-Platinum (DCEP) (2 cycles) • B1 VELCADE+dexamethasone (4 cycles) • B2 VELCADE+dexamethasone (4 cycles) followed by DCEP (2 cycles)
Randomization was stratified based on the initial β2 microglobulin level (> or ≦3 mg/l) and the presence of chromosome 13 abnormalities identified by fluorescence in situ hybridization (FISH) analysis. After induction treatment (Arms A1 and B1) or after consolidation treatment (Arms A2 and B2) all of the patients underwent AHSCT.
470 samples were sent to Illumina for genotyping on 2016 SNPs in 172 non-mitochondria genes. Out of the 470 samples, 29 samples are Hapmap control subjects, 3 samples are controls subjects from a Belgium family, and another 4 are samples from Example 1 for quality control. Therefore, there were totally 434 unique subjects from this study (103 in A1, 105 in A2, 111 in B1, 111 in B2 and 4 not treated).
After the quality control and filtering, 212 VELCADE treated subjects were included in the association analysis on non-mtSNPs.
Based on the raw p-values for the association tests, none of the significant associations identified in Example 1 were replicated in Example 2. […] Patients with homogenous genotype of the minor allele of rs4553808 (GG) tend to have earlier onset of peripheral neuropathy than those that contain only 1 or 0 copy of the minor allele (AA/AG): median time to onset was 68 days vs. 70 days.
The association with time and cumulative dosage of VELCADE™ to the onset of different levels of peripheral neuropathy in all 1908 SNPs in Example 2 was tested. No significant associations was identified after multiple testing correction using Bonfferoni (0.05/1908=2.62E-05).

onset of any peripheral neuropathy [1]: 72 events
onset of grade≧2 peripheral neuropathy [1]: 50 events
onset of grade≧3 peripheral neuropathy [1]: 21 events
onset rate of peripheral neuropathy event [1]: 51.8%
Neuralgia [3]: 9 cases
onset rate of peripheral neuropathy event [3]: 44.8%
peripheral neuropathy NEC [3]: 44 cases
peripheral sensory neuropathy [3]: 8 cases
Structure (SMILES): CC(C)C[C@H](NC(=O)[C@H](Cc1ccccc1)NC(=O)c1cnccn1)B(O)O [VELCADE, bortezomib]
treatment cycle at which peripheral neuropathy reaches a plateau (patients; in vivo): 5 cycle
mean rating of associated pain (patients; scale of 0 for no pain and 10 for worst imaginable pain): 7.8
patients with improvement or resolution of peripheral neuropathy ([2]; after dose discontinuation, patients discontinuing due to Grade 2 PN or who had >Grade 3 PN): 73%
patients with improvement or resolution of peripheral neuropathy ([2]; after dose reduction, patients with >Grade 2 PN): 51%
any one of the three adverse events (AE3) [3]: 51 cases
